From patent US7759345B2, “Antitumoral derivatives of ET-743” (priority 2001, dated 2010)
Like-named read-outs stand apart in the source and are kept apart here.

Experiments:
IGROV-1 = assay: Inhibition of cells growth by colorimetric assay (SRB), IGROV-1; format: cell-based; conditions: for GI50: read-out: GI50 IGROV
Outline: (§1)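 Human cancer cells (5×10^3/well) attached 18 h in RPMI 1640 10% FBS, then exposed 48 h at 37°C to compounds from 10 to 10^−8 μg/ml in DMSO/EtOH/PBS. TCA-fixed, SRB-stained, OD read at 490 nm; GI, TGI and LC derived from triplicate wells.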

Myelo = assay: In vitro toxicity, Myelo
Source text: (§2) Toxicity was asssessed by the methods reported in Toxicology in Vitro, 15 (2001) 571-577, J. Luber Narod et al.: “Evaluation of the use of in vitro methodolodies as tools for screening new compounds for potential in vivo toxicity”.

SK-MEL-28 = assay: Inhibition of cells growth by colorimetric assay (SRB), SK-MEL-28; format: cell-based; conditions: for GI50: read-out: GI50 MEL-28
Outline: as §1

LoVo = assay: Inhibition of cells growth by colorimetric assay (SRB), LoVo; format: cell-based; conditions: for GI50: read-out: GI50 LOVO
Outline: as §1

HT-29 = assay: Inhibition of cells growth by colorimetric assay (SRB), HT-29; format: cell-based; conditions: for GI50: read-out: GI50 HT-29
Outline: as §1

SK-OV-3 = assay: Inhibition of cells growth by colorimetric assay (SRB), SK-OV-3; format: cell-based; conditions: for GI50: read-out: GI50 SK-OV3
Outline: as §1

HMEC1 = assay: Inhibition of cells growth by colorimetric assay (SRB), HMEC1; format: cell-based; conditions: for GI50: read-out: GI50 HMEC-1
Outline: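 Cells in RPMI 1640 with 10% FBS were seeded at 5×10^3 per well, allowed 18 h to attach, then exposed to compound (10 to 10^−8 μg/ml, in DMSO/EtOH/PBS 0.5:0.5:99) for 48 h. After TCA fixation and SRB staining, bound dye was solubilized in Tris and OD read at 490 nm; GI, TGI and LC derived from triplicates.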

DU-145 = assay: Inhibition of cells growth by colorimetric assay (SRB), DU-145; format: cell-based; conditions: for GI50: read-out: GI50 DU-145
Outline: as §1

Skeletal = assay: In vitro toxicity, Skeletal
Source text: as §2

Liver = assay: In vitro toxicity, Liver
Source text: as §2

IGROV-ET = assay: Inhibition of cells growth by colorimetric assay (SRB), IGROV-ET; format: cell-based; conditions: for GI50: read-out: GI50 IGROV-ET
Outline: as §1

Heart = assay: In vitro toxicity, Heart
Source text: as §2

LoVo-Dox = assay: Inhibition of cells growth by colorimetric assay (SRB), LoVo-Dox; format: cell-based; conditions: for GI50: read-out: GI50 LOVO-DOX
Outline: as §1

A-549 = assay: Inhibition of cells growth by colorimetric assay (SRB), A-549; format: cell-based; conditions: for GI50: read-out: GI50 A-549
Outline: as §1

SK-BR-3 = assay: Inhibition of cells growth by colorimetric assay (SRB), SK-BR-3; format: cell-based; conditions: for GI50: read-out: GI50 SK-BR3
Outline: as §1

K-562 = assay: Inhibition of cells growth by colorimetric assay (SRB), K-562; format: cell-based; conditions: for GI50: read-out: GI50 K-562
Outline: as §1

PANC-1 = assay: Inhibition of cells growth by colorimetric assay (SRB), PANC-1; format: cell-based; conditions: for GI50: read-out: GI50 PANC-1
Outline: as §1

LNCaP = assay: Inhibition of cells growth by colorimetric assay (SRB), LNCaP; format: cell-based; conditions: SRB, 48 hours exposure
Outline: as §1

Kidney = assay: In vitro toxicity, Kidney
Source text: as §2

[1] = IGROV-ET, SRB, 48 hours exposure
[2] = LOVO-DOX, SRB, 48 hours exposure

COc1cc2c(cc1OC(=O)C(F)(F)C(F)(F)C(F)(F)F)CCN[C@]21CS[C@@H]2c3c(OC(C)=O)c(C)c4c(c3[C@H](COC1=O)N1C2[C@H]2c3c(cc(C)c(OC)c3O)C[C@@H]([C@@H]1O)N2C)OCO4 (stereo partly shown) [Compound 74]
GI50 (IGROV-1; Homo sapiens, IGROV-1, 48 h): 0.237 nM | CC50 (IGROV-1; Homo sapiens, IGROV-1, 48 h, read-out: LC50 IGROV, IGROV, SRB, 48 hours exposure): 0.911 nM | TGI IGROV (IGROV-1; IGROV, SRB, 48 hours exposure): 4.65E-10 | Toxicity Data Myelo (Myelo): 3.30E-08 | GI50 (SK-MEL-28; Homo sapiens, SK-MEL-28, 48 h): 0.275 nM | CC50 (SK-MEL-28; Homo sapiens, SK-MEL-28, 48 h, read-out: LC50 MEL-28, MEL-28, SRB, 48 hours exposure): 0.994 nM | TGI MEL-28 (SK-MEL-28; MEL-28, SRB, 48 hours exposure): 5.22E-10 | GI50 (LoVo; Homo sapiens, LoVo, 48 h): 0.369 nM | LC50 (concentration for 50% cell killing) (LoVo; Homo sapiens, LoVo, 48 h, read-out: LC50 LOVO, LOVO, SRB, 48 hours exposure): 11 nM | TGI LOVO (LoVo; LOVO, SRB, 48 hours exposure): 1.16E-09 | TGI HT-29 (HT-29; HT-29, SRB, 48 hours exposure): 8.35E-10 | GI50 (HT-29; Homo sapiens, HT-29, 48 h): 0.354 nM | LC50 (concentration for 50% cell killing) (HT-29; Homo sapiens, HT-29, 48 h, read-out: LC50 HT-29, HT-29, SRB, 48 hours exposure): 10400 nM | GI50 (SK-OV-3; Homo sapiens, SK-OV-3, 48 h): 0.248 nM | LC50 (SK-OV-3; Homo sapiens, SK-OV-3, 48 h, read-out: LC50 SK-OV3, SK-OV3, SRB, 48 hours exposure): 1.11 nM | TGI SK-OV3 (SK-OV-3; SK-OV3, SRB, 48 hours exposure): 4.76E-10 | TGI HMEC-1 (HMEC1; HMEC-1, SRB, 48 hours exposure): 1.45E-08 | GI50 (HMEC1; Homo sapiens, HMEC-1, 48 h): 0.598 nM | LC50 (HMEC1; Homo sapiens, HMEC-1, 48 h, read-out: LC50 HMEC-1, HMEC-1, SRB, 48 hours exposure): 4700 nM | TGI DU-145 (DU-145; DU-145, SRB, 48 hours exposure): 7.61E-10 | GI50 (DU-145; Homo sapiens, DU-145, 48 h): 0.366 nM | CC50 (DU-145; Homo sapiens, DU-145, 48 h, read-out: LC50 DU-145, DU-145, SRB, 48 hours exposure): 2790 nM | Toxicity Data Skeletal (Skeletal): 8.30E-10 | Toxicity Data Liver (Liver): 3.07E-08 | GI50 (IGROV-ET; Homo sapiens, 48 h): 1.76 nM | CC50 (IGROV-ET; Homo sapiens, 48 h, read-out: LC50 IGROV-ET, IGROV-ET, SRB, 48 hours exposure): 19.7 nM | TGI IGROV-ET (IGROV-ET; [1]): 4.69E-09 | Toxicity Data Heart (Heart): 2.86E-08 | GI50 (LoVo-Dox; Homo sapiens, 48 h): 6.31 nM | CC50 (LoVo-Dox; Homo sapiens, 48 h, read-out: LC50 LOVO-DOX, LOVO-DOX, SRB, 48 hours exposure): 359 nM | TGI LOVO-DOX (LoVo-Dox; [2]): 6.33E-08 | TGI A-549 (A-549; A-549, SRB, 48 hours exposure): 9.04E-10 | GI50 (A-549; Homo sapiens, A549, 48 h): 0.399 nM | LC50 (concentration for 50% cell killing) (A-549; Homo sapiens, A549, 48 h, read-out: LC50 A-549, A-549, SRB, 48 hours exposure): 6.38 nM | GI50 (SK-BR-3; Homo sapiens, SK-BR-3, 48 h): 0.275 nM | CC50 (SK-BR-3; Homo sapiens, SK-BR-3, 48 h, read-out: LC50 SK-BR3, SK-BR3, SRB, 48 hours exposure): 4.18 nM | TGI SK-BR3 (SK-BR-3; SK-BR3, SRB, 48 hours exposure): 7.64E-10 | GI50 (K-562; Homo sapiens, K562, 48 h): 0.0526 nM | LC50 (50% cell killing) (K-562; Homo sapiens, K562, 48 h, read-out: LC50 K-562, K-562, SRB, 48 hours exposure): 0.661 nM | TGI K-562 (K-562; K-562, SRB, 48 hours exposure): 2.10E-10 | GI50 (PANC-1; Homo sapiens, PANC-1, 48 h): 0.313 nM | LC50 (concentration for 50% net cell kill) (PANC-1; Homo sapiens, PANC-1, 48 h, read-out: LC50 PANC-1, PANC-1, SRB, 48 hours exposure): 2.55 nM | TGI PANC-1 (PANC-1; PANC-1, SRB, 48 hours exposure): 6.77E-10 | GI50 (LNCaP; Homo sapiens, LNCaP, 48 h, read-out: GI50 LNCAP, LNCAP): 0.129 nM | CC50 (LNCaP; Homo sapiens, LNCaP, 48 h, read-out: LC50 LNCAP, LNCAP): 0.564 nM | TGI LNCAP (LNCaP; LNCAP): 2.69E-10 | Toxicity Data Kidney (Kidney): 3.05E-08

C=COC(=O)Oc1cc2c(cc1OC)[C@@]1(CS[C@@H]3c4c(OC(C)=O)c(C)c5c(c4[C@H](COC1=O)N1C3[C@H]3c4c(cc(C)c(OC)c4O)C[C@@H]([C@@H]1O)N3C)OCO5)NCC2 (stereo partly shown) [Compound 75]
TGI IGROV (IGROV-1; IGROV, SRB, 48 hours exposure): 1.63E-09 | GI50 (IGROV-1; IGROV, SRB, 48 hours exposure): 0.52 nM | CC50 (IGROV-1; IGROV, SRB, 48 hours exposure, read-out: LC50 IGROV): 10 nM | Toxicity Data Myelo (Myelo): 5.85E-08 | LC50 (concentration killing 50% of cells) (SK-MEL-28; MEL-28, SRB, 48 hours exposure): 11.7 nM | TGI MEL-28 (SK-MEL-28; MEL-28, SRB, 48 hours exposure): 4.82E-09 | GI50 (SK-MEL-28; MEL-28, SRB, 48 hours exposure): 2 nM | LC50 (concentration killing 50% of cells) (LoVo; LOVO, SRB, 48 hours exposure): 12 nM | TGI LOVO (LoVo; LOVO, SRB, 48 hours exposure): 4.82E-09 | GI50 (LoVo; LOVO, SRB, 48 hours exposure): 2.25 nM | TGI HT-29 (HT-29; HT-29, SRB, 48 hours exposure): 1.18E-08 | GI50 (HT-29; HT-29, SRB, 48 hours exposure): 3.89 nM | CC50 (HT-29; HT-29, SRB, 48 hours exposure, read-out: LC50 HT-29): 120 nM | TGI SK-OV3 (SK-OV-3; SK-OV3, SRB, 48 hours exposure): 1.04E-08 | GI50 (SK-OV-3; SK-OV3, SRB, 48 hours exposure): 2.19 nM | TGI HMEC-1 (HMEC1; HMEC-1, SRB, 48 hours exposure): 5.77E-08 | GI50 (HMEC1; HMEC-1, SRB, 48 hours exposure): 6.97 nM | TGI DU-145 (DU-145; DU-145, SRB, 48 hours exposure): 9.47E-10 | GI50 (DU-145; DU-145, SRB, 48 hours exposure): 0.563 nM | CC50 (DU-145; DU-145, SRB, 48 hours exposure, read-out: LC50 DU-145): 8330 nM | Toxicity Data Skeletal (Skeletal): 4.06E-09 | Toxicity Data Liver (Liver): 4.11E-08 | TGI IGROV-ET (IGROV-ET; [1]): 6.58E-09 | GI50 (IGROV-ET; [1]): 3.38 nM | CC50 (IGROV-ET; IGROV-ET, SRB, 48 hours exposure, read-out: LC50 IGROV-ET): 12 nM | Toxicity Data Heart (Heart): 8.17E-08 | TGI LOVO-DOX (LoVo-Dox; [2]): 1.23E-07 | GI50 (LoVo-Dox; [2]): 42.6 nM | TGI A-549 (A-549; A-549, SRB, 48 hours exposure): 8.23E-09 | GI50 (A-549; A-549, SRB, 48 hours exposure): 4.26 nM | LC50 (50% lethal concentration) (A-549; A-549, SRB, 48 hours exposure, read-out: LC50 A-549): 49 nM | TGI SK-BR3 (SK-BR-3; SK-BR3, SRB, 48 hours exposure): 3.21E-09 | GI50 (SK-BR-3; SK-BR3, SRB, 48 hours exposure): 1.2 nM | CC50 (SK-BR-3; SK-BR3, SRB, 48 hours exposure, read-out: LC50 SK-BR3): 8.58 nM | LC50 (50% lethal concentration) (K-562; K-562, SRB, 48 hours exposure): 4.16 nM | TGI K-562 (K-562; K-562, SRB, 48 hours exposure): 7.42E-10 | GI50 (K-562; K-562, SRB, 48 hours exposure): 0.364 nM | LC50 (concentration killing 50% of cells) (PANC-1; PANC-1, SRB, 48 hours exposure): 35.9 nM | TGI PANC-1 (PANC-1; PANC-1, SRB, 48 hours exposure): 8.45E-09 | GI50 (PANC-1; PANC-1, SRB, 48 hours exposure): 3.04 nM | TGI LNCAP (LNCaP; LNCAP): 8.31E-10 | GI50 (LNCaP; LNCAP, read-out: GI50 LNCAP): 0.579 nM | CC50 (LNCaP; LNCAP, read-out: LC50 LNCAP): 1.19 nM | Toxicity Data Kidney (Kidney): 3.86E-08
